Assay results taken from the kinase profiling compilation of Christmann-Franck et al. (2016).

Assays:
Experiment in all cases: KINOMEscan competition binding
Details in all cases: compound 10.0 µM
MAP4K5 (human) = MAP4K5 (human) (UniProt Q9Y4K4)
CAMK2B (human) = CAMK2B (human) (UniProt Q13554)
MTOR (human) = MTOR (human) (UniProt P42345)
BRSK2 (human) = BRSK2 (human) (UniProt Q8IWQ3)
PLK3 (human) = PLK3 (human) (UniProt Q9H4B4)
CSNK1G1 (human) = CSNK1G1 (human) (UniProt Q9HCP0)
[1] = target: JAK1 JH1 catalytic (human) (UniProt P23458)
MAP4K2 (human) = MAP4K2 (human) (UniProt Q12851)
MYLK (human) = MYLK (human) (UniProt Q15746)
MAP3K4 (human) = MAP3K4 (human) (UniProt Q9Y6R4)
PLK1 (human) = PLK1 (human) (UniProt P53350)
CDC42BPG (human) = CDC42BPG (human) (UniProt Q6DT37)
CAMKK2 (human) = CAMKK2 (human) (UniProt Q96RR4)
TIE1 (human) = TIE1 (human) (UniProt P35590)
MINK1 (human) = MINK1 (human) (UniProt Q8N4C8)
RPS6KA1 KD2 (human) = RPS6KA1 KD2 (human) (UniProt Q15418)
MAP4K4 (human) = MAP4K4 (human) (UniProt O95819)
CSF1R (human) = CSF1R (human) (UniProt P07333)
EPHA8 (human) = EPHA8 (human) (UniProt P29322)
MAP3K7 (human) = MAP3K7 (human) (UniProt O43318)
MAPK7 (human) = MAPK7 (human) (UniProt Q13164)
[2] = target: JAK3 JH1 catalytic (human) (UniProt P52333)
CLK4 (human) = CLK4 (human) (UniProt Q9HAZ1)
CDC42BPB (human) = CDC42BPB (human) (UniProt Q9Y5S2)
ULK2 (human) = ULK2 (human) (UniProt Q8IYT8)
CLK2 (human) = CLK2 (human) (UniProt P49760)
MUSK (human) = MUSK (human) (UniProt O15146)
RAF1 (human) = RAF1 (human) (UniProt P04049)
HIPK1 (human) = HIPK1 (human) (UniProt Q86Z02)
STK11 (human) = STK11 (human) (UniProt Q15831)
RPS6KA3 KD1 (human) = RPS6KA3 KD1 (human) (UniProt P51812)
NEK3 (human) = NEK3 (human) (UniProt P51956)
MAPKAPK5 (human) = MAPKAPK5 (human) (UniProt Q8IW41)
CSNK1E (human) = CSNK1E (human) (UniProt P49674)
EGFR (human) = EGFR (human) (UniProt P00533)
RPS6KA4 KD1 (human) = RPS6KA4 KD1 (human) (UniProt O75676)
FLT3 (human) = FLT3 (human) (UniProt P36888)
RIOK3 (human) = RIOK3 (human) (UniProt O14730)
HCK (human) = HCK (human) (UniProt P08631)
FLT4 (human) = FLT4 (human) (UniProt P35916)

Sequence of NEK3 (human) (P51956 whole entry, looked up): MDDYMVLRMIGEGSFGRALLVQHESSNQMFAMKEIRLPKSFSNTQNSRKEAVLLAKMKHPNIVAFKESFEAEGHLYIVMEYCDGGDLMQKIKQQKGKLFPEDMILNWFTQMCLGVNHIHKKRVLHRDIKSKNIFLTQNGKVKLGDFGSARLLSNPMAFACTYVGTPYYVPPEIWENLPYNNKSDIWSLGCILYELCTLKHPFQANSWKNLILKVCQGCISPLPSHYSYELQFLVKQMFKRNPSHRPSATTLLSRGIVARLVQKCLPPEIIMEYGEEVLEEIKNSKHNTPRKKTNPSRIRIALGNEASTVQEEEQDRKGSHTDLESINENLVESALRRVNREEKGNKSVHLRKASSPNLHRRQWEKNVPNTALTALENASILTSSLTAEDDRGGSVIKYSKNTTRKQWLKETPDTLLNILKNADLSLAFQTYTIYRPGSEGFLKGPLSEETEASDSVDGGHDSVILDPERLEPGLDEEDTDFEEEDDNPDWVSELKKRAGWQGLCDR
Sequence of RPS6KA1 KD2 (human) (Q15418 whole entry, looked up): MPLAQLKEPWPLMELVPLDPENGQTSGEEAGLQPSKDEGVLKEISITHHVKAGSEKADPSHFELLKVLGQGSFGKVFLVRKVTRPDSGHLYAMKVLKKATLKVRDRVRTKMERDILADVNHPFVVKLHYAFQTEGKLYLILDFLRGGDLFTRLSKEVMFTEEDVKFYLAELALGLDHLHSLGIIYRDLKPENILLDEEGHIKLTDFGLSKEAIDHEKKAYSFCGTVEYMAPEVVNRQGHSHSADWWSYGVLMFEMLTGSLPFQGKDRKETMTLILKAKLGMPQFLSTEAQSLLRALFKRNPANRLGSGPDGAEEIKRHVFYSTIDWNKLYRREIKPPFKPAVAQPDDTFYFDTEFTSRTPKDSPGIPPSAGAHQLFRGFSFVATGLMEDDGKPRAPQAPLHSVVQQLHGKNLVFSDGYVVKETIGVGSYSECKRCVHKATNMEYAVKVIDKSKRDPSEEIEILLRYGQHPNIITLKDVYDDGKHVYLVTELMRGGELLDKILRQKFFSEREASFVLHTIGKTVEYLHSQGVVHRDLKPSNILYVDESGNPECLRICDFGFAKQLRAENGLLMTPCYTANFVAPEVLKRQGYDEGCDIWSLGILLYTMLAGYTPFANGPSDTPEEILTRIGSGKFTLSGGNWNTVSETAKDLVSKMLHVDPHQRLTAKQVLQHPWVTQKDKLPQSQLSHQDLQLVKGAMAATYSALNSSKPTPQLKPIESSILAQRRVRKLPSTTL
Sequence of CSNK1E (human) (P49674 whole entry, looked up): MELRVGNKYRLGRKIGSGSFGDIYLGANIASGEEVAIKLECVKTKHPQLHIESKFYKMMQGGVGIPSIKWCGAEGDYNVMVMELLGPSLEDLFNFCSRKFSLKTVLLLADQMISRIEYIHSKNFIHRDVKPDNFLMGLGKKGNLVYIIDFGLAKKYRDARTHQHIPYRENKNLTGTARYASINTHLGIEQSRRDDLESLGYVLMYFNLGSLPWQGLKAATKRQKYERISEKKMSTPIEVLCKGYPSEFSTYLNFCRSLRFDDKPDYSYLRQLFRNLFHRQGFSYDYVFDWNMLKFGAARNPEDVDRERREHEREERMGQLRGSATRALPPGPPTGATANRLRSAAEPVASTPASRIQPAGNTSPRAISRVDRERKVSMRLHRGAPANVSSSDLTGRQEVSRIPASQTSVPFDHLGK
Sequence of PLK3 (human) (Q9H4B4 whole entry, looked up): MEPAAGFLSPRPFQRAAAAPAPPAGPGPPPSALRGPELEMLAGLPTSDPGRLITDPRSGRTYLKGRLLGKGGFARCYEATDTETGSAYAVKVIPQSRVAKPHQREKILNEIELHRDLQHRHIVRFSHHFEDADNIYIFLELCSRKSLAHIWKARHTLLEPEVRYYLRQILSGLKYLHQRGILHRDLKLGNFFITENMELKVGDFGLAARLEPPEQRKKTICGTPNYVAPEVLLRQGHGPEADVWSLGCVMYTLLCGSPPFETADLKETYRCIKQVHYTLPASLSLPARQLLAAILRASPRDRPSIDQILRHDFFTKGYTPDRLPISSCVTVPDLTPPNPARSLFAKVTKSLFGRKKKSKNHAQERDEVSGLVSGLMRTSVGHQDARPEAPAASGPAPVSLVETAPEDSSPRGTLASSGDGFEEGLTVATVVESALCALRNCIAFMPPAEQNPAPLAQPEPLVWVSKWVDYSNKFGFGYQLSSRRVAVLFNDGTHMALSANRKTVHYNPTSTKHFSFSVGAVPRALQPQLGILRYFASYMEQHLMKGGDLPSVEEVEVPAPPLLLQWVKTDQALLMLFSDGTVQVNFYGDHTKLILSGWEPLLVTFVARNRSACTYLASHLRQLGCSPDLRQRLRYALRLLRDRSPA
Sequence of MYLK (human) (Q15746 whole entry, looked up): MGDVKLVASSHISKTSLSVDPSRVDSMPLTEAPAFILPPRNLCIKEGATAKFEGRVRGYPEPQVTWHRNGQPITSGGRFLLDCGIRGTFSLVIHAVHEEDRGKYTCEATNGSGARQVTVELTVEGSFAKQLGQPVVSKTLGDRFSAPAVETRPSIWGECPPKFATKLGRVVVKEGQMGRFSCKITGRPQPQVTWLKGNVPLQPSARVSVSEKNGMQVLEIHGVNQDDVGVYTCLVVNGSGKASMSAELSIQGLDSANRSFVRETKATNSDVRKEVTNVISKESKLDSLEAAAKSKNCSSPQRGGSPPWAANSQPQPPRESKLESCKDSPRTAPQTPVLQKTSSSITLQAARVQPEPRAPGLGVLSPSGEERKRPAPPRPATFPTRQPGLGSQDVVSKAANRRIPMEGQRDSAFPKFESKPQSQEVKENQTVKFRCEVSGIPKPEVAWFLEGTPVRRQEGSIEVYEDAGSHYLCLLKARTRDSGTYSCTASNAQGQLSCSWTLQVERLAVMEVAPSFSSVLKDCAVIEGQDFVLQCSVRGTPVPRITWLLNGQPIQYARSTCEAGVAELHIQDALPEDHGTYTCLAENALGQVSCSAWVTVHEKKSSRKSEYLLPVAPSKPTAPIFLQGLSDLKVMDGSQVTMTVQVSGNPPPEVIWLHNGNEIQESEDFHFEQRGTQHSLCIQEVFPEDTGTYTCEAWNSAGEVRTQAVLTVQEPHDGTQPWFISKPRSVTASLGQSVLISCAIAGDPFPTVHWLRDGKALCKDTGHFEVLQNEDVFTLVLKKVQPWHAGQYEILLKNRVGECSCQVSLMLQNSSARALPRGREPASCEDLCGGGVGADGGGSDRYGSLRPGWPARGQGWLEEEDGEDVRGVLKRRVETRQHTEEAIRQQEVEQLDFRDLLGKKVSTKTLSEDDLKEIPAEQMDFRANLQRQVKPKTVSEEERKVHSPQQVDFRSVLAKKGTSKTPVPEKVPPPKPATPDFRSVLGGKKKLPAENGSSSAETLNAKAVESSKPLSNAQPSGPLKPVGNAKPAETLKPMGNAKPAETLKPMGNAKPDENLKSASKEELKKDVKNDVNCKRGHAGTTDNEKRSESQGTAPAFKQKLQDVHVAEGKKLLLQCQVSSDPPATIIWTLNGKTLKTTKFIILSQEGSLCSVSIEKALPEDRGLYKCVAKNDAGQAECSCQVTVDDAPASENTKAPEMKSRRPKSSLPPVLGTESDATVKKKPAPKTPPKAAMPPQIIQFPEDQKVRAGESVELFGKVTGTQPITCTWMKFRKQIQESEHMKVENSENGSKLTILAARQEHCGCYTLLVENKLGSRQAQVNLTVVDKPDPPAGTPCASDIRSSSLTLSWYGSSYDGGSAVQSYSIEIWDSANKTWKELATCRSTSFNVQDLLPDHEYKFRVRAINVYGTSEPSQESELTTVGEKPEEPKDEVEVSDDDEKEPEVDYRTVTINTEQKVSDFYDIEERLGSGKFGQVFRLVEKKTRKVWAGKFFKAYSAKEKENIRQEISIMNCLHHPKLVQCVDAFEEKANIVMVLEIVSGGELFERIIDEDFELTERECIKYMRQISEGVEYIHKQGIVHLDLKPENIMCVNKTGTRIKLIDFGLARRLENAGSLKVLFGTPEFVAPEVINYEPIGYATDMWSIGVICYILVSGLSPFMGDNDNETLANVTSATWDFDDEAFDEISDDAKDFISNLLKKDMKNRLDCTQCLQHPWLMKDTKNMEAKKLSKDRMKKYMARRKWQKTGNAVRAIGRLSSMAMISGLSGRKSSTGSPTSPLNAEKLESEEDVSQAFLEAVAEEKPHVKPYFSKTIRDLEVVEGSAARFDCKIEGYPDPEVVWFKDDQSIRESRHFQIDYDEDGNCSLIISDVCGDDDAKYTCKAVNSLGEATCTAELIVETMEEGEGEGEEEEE
Sequence of MAP4K5 (human) (Q9Y4K4 whole entry, looked up): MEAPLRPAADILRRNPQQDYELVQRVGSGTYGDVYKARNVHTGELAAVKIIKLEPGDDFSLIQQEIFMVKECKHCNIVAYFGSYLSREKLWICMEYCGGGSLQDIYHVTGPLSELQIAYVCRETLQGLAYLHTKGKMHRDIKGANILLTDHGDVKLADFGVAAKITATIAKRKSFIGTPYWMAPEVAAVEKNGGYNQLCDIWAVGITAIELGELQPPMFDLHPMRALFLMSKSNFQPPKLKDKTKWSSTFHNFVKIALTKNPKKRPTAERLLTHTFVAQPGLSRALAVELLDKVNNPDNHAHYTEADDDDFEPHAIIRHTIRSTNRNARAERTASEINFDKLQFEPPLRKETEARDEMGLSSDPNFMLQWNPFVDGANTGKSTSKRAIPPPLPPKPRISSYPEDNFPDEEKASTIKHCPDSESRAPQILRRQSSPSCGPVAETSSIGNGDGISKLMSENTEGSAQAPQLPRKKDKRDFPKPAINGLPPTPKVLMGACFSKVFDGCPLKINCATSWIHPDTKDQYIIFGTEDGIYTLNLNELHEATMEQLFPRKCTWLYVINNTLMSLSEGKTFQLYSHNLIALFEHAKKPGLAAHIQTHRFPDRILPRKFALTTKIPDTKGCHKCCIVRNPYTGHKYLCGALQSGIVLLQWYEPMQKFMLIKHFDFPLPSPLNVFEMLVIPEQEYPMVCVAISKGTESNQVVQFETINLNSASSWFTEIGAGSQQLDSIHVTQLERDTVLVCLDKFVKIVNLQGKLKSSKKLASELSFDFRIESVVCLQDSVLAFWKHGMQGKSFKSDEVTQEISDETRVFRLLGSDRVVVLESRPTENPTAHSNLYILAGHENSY

## N#Cc1cc(-c2ccnc(Nc3ccc(-n4cnc(-c5cccnc5)n4)cc3)n2)cc(N2CCOCC2)c1
MAP4K5 (human)
  kinase still bound, per cent of control: 27%
CAMK2B (human)
  kinase still bound, per cent of control: 37%
MTOR (human)
  kinase still bound, per cent of control: 100%
BRSK2 (human)
  kinase still bound, per cent of control: 98%
PLK3 (human)
  kinase still bound, per cent of control: 93%
CSNK1G1 (human)
  kinase still bound, per cent of control: 92%
[1]
  kinase still bound, per cent of control: 59%
MAP4K2 (human)
  kinase still bound, per cent of control: 10%
MYLK (human)
  kinase still bound, per cent of control: 100%
MAP3K4 (human)
  kinase still bound, per cent of control: 50%
PLK1 (human)
  kinase still bound, per cent of control: 99%
CDC42BPG (human)
  kinase still bound, per cent of control: 63%
CAMKK2 (human)
  kinase still bound, per cent of control: 52%
TIE1 (human)
  kinase still bound, per cent of control: 30%
MINK1 (human)
  kinase still bound, per cent of control: 31%
RPS6KA1 KD2 (human)
  kinase still bound, per cent of control: 77%
MAP4K4 (human)
  kinase still bound, per cent of control: 24%
CSF1R (human)
  kinase still bound, per cent of control: 14%
EPHA8 (human)
  kinase still bound, per cent of control: 93%
MAP3K7 (human)
  kinase still bound, per cent of control: 15%
MAPK7 (human)
  kinase still bound, per cent of control: 100%
[2]
  kinase still bound, per cent of control: 2.2%
CLK4 (human)
  kinase still bound, per cent of control: 7.2%
CDC42BPB (human)
  kinase still bound, per cent of control: 61%
ULK2 (human)
  kinase still bound, per cent of control: 90%
CLK2 (human)
  kinase still bound, per cent of control: 15%
MUSK (human)
  kinase still bound, per cent of control: 92%
RAF1 (human)
  kinase still bound, per cent of control: 91%
HIPK1 (human)
  kinase still bound, per cent of control: 2.2%
STK11 (human)
  kinase still bound, per cent of control: 11%
RPS6KA3 KD1 (human)
  kinase still bound, per cent of control: 69%
NEK3 (human)
  kinase still bound, per cent of control: 0.75%
MAPKAPK5 (human)
  kinase still bound, per cent of control: 100%
CSNK1E (human)
  kinase still bound, per cent of control: 95%
EGFR (human)
  kinase still bound, per cent of control: 71%
RPS6KA4 KD1 (human)
  kinase still bound, per cent of control: 100%
FLT3 (human)
  kinase still bound, per cent of control: 18%
RIOK3 (human)
  kinase still bound, per cent of control: 3.2%
HCK (human)
  kinase still bound, per cent of control: 100%
FLT4 (human)
  kinase still bound, per cent of control: 84%

## C=CC(=O)Nc1ccc(C(=O)c2sc(Nc3ccc(N4CCN(C)CC4)cc3OC)nc2N)cc1
MAP4K5 (human)
  kinase still bound, per cent of control: 87%
CAMK2B (human)
  kinase still bound, per cent of control: 0%
MTOR (human)
  kinase still bound, per cent of control: 90%
BRSK2 (human)
  kinase still bound, per cent of control: 72%
PLK3 (human)
  kinase still bound, per cent of control: 7.8%
CSNK1G1 (human)
  kinase still bound, per cent of control: 18%
[1]
  kinase still bound, per cent of control: 100%
MAP4K2 (human)
  kinase still bound, per cent of control: 4.6%
MYLK (human)
  kinase still bound, per cent of control: 8.6%
MAP3K4 (human)
  kinase still bound, per cent of control: 100%
PLK1 (human)
  kinase still bound, per cent of control: 45%
CDC42BPG (human)
  kinase still bound, per cent of control: 93%
CAMKK2 (human)
  kinase still bound, per cent of control: 5%
TIE1 (human)
  kinase still bound, per cent of control: 67%
MINK1 (human)
  kinase still bound, per cent of control: 3.5%
RPS6KA1 KD2 (human)
  kinase still bound, per cent of control: 0.3%
MAP4K4 (human)
  kinase still bound, per cent of control: 38%
CSF1R (human)
  kinase still bound, per cent of control: 58%
EPHA8 (human)
  kinase still bound, per cent of control: 88%
MAP3K7 (human)
  kinase still bound, per cent of control: 73%
MAPK7 (human)
  kinase still bound, per cent of control: 9.8%
[2]
  kinase still bound, per cent of control: 100%
CLK4 (human)
  kinase still bound, per cent of control: 1.6%
CDC42BPB (human)
  kinase still bound, per cent of control: 100%
ULK2 (human)
  kinase still bound, per cent of control: 9.4%
CLK2 (human)
  kinase still bound, per cent of control: 0%
MUSK (human)
  kinase still bound, per cent of control: 100%
RAF1 (human)
  kinase still bound, per cent of control: 97%
HIPK1 (human)
  kinase still bound, per cent of control: 15%
STK11 (human)
  kinase still bound, per cent of control: 86%
RPS6KA3 KD1 (human)
  kinase still bound, per cent of control: 9.6%
NEK3 (human)
  kinase still bound, per cent of control: 70%
MAPKAPK5 (human)
  kinase still bound, per cent of control: 14%
CSNK1E (human)
  kinase still bound, per cent of control: 66%
EGFR (human)
  kinase still bound, per cent of control: 84%
RPS6KA4 KD1 (human)
  kinase still bound, per cent of control: 95%
FLT3 (human)
  kinase still bound, per cent of control: 73%
RIOK3 (human)
  kinase still bound, per cent of control: 61%
HCK (human)
  kinase still bound, per cent of control: 100%
FLT4 (human)
  kinase still bound, per cent of control: 100%

## CCN1CCN(Cc2ccc(NC(=O)c3ccc(C)c(/C=C/c4cnc5[nH]ccc5c4OC)c3)cc2C(F)(F)F)CC1
MAP4K5 (human)
  kinase still bound, per cent of control: 3.4%
CAMK2B (human)
  kinase still bound, per cent of control: 100%
MTOR (human)
  kinase still bound, per cent of control: 100%
BRSK2 (human)
  kinase still bound, per cent of control: 100%
PLK3 (human)
  kinase still bound, per cent of control: 83%
CSNK1G1 (human)
  kinase still bound, per cent of control: 98%
[1]
  kinase still bound, per cent of control: 39%
MAP4K2 (human)
  kinase still bound, per cent of control: 0%
MYLK (human)
  kinase still bound, per cent of control: 90%
MAP3K4 (human)
  kinase still bound, per cent of control: 66%
PLK1 (human)
  kinase still bound, per cent of control: 100%
CDC42BPG (human)
  kinase still bound, per cent of control: 16%
CAMKK2 (human)
  kinase still bound, per cent of control: 100%
TIE1 (human)
  kinase still bound, per cent of control: 4.6%
MINK1 (human)
  kinase still bound, per cent of control: 2.8%
RPS6KA1 KD2 (human)
  kinase still bound, per cent of control: 20%
MAP4K4 (human)
  kinase still bound, per cent of control: 4.2%
CSF1R (human)
  kinase still bound, per cent of control: 0%
EPHA8 (human)
  kinase still bound, per cent of control: 0.15%
MAP3K7 (human)
  kinase still bound, per cent of control: 4.8%
MAPK7 (human)
  kinase still bound, per cent of control: 73%
[2]
  kinase still bound, per cent of control: 1.1%
CLK4 (human)
  kinase still bound, per cent of control: 100%
CDC42BPB (human)
  kinase still bound, per cent of control: 65%
ULK2 (human)
  kinase still bound, per cent of control: 35%
CLK2 (human)
  kinase still bound, per cent of control: 71%
MUSK (human)
  kinase still bound, per cent of control: 0%
RAF1 (human)
  kinase still bound, per cent of control: 0.9%
HIPK1 (human)
  kinase still bound, per cent of control: 74%
STK11 (human)
  kinase still bound, per cent of control: 7.9%
RPS6KA3 KD1 (human)
  kinase still bound, per cent of control: 14%
NEK3 (human)
  kinase still bound, per cent of control: 77%
MAPKAPK5 (human)
  kinase still bound, per cent of control: 90%
CSNK1E (human)
  kinase still bound, per cent of control: 45%
EGFR (human)
  kinase still bound, per cent of control: 0.4%
RPS6KA4 KD1 (human)
  kinase still bound, per cent of control: 50%
FLT3 (human)
  kinase still bound, per cent of control: 0.95%
RIOK3 (human)
  kinase still bound, per cent of control: 0.35%
HCK (human)
  kinase still bound, per cent of control: 0.45%
FLT4 (human)
  kinase still bound, per cent of control: 0.2%
